Data taken from BindingDB's records for doi:10.1016/j.bmcl.2019.04.027 (Gilead Sciences, 2019).
pEC50: −log10 of the molar value.

Key:
[1] = Inhibition of NS5A L31M mutant in HCV genotype 2a J6 (M31) infected in human HuH7 replicon cells assessed as reduction in viral replication after 3 days by luciferase reporter gene assay
[2] = Inhibition of NS5A in HCV genotype 4a ED43 infected in human HuH7 transient chimeric replicon cells assessed as reduction in viral replication after 3 days by luciferase reporter gene assay
[3] = Inhibition of NS5A L31M mutant in patient derived HCV genotype 2b MD2b-1 infected in human HuH7 replicon cells assessed as reduction in viral replication after 3 days by luciferase reporter gene assay
[4] = Inhibition of NS5A in HCV genotype 2a JFH1 infected in human HuH7 replicon cells assessed as reduction in viral replication after 3 days by luciferase reporter gene assay
[5] = Inhibition of NS5A in HCV genotype 3a S52 infected in human HuH7 transient chimeric replicon cells assessed as reduction in viral replication after 3 days by luciferase reporter gene assay
[6] = Inhibition of NS5A in HCV genotype 1b Con1 infected in human HuH7 replicon cells assessed as reduction in viral replication after 3 days by luciferase reporter gene assay
[7] = Inhibition of NS5A in HCV genotype 1a H77 infected in human HuH7 replicon cells assessed as reduction in viral replication after 3 days by luciferase reporter gene assay
[8] = Inhibition of NS5A L31M mutant in HCV genotype 2a JFH1 infected in human HuH7 replicon cells assessed as reduction in viral replication after 3 days by luciferase reporter gene assay
[9] = Inhibition of NS5A in HCV genotype 2a JFH1 (L31) infected in human HuH7 replicon cells assessed as reduction in viral replication after 3 days by luciferase reporter gene assay
[10] = Inhibition of NS5A in HCV genotype 2b MD2b-1 infected in human HuH7 replicon cells assessed as reduction in viral replication after 3 days by luciferase reporter gene assay
[11] = Inhibition of NS5A in HCV genotype 4a ED43 infected in human HuH7 replicon cells assessed as reduction in viral replication after 3 days by luciferase reporter gene assay

| SMILES | pEC50 [1] | pEC50 [2] | pEC50 [3] | pEC50 [4] | pEC50 [5] | pEC50 [6] | pEC50 [7] | pEC50 [8] | pEC50 [9] | pEC50 [10] | pEC50 [11] |
| --- | --- | --- | --- | --- | --- | --- | --- | --- | --- | --- | --- |
| COC(=O)N[C@H](C(=O)N1CCC[C@H]1c1nc2ccc3cc4c(cc3c2[nH]1)OCc1cc(-c2cnc([C@@H]3CCCN3C(=O)[C@H](NC(=O)OC)c3ccccc3)[nH]2)ccc1-4)C(C)C | 10.14 | 10.96 | 10.80 | 11.22 | 11.22 | 10.48 | 10.46 |  |  |  |  |
| COC(=O)N[C@H](C(=O)N1CCC[C@H]1c1ncc(-c2cc3c4c(c2)OCc2cc(-c5cnc([C@@H]6CCCN6C(=O)[C@@H](NC(=O)OC)C6CCC6)[nH]5)cc(c2-4)OC3)[nH]1)C1CCC1 |  |  |  |  |  | 10.70 | 10.28 | 7.50 | 10.70 |  |  |
| COC(=O)N[C@H](C(=O)N1CCC[C@H]1c1ncc(-c2cc3c4c(c2)OCc2cc(-c5cnc([C@@H]6CCCN6C(=O)[C@@H](NC(=O)OC)C6CCOCC6)[nH]5)cc(c2-4)OC3)[nH]1)C1CCOCC1 | 9.48 |  | 9.22 |  |  | 9.10 | 9.42 |  | 10.13 |  |  |
| COC(=O)N[C@H](C(=O)N1CCC[C@H]1c1ncc(-c2cc3c4c(c2)COc2cc(-c5cnc([C@@H]6CCCN6C(=O)[C@@H](NC(=O)OC)C(C)C)[nH]5)cc(c2-4)CC3)[nH]1)C(C)C | 7.63 |  |  |  |  | 10.55 | 10.19 |  | 10.80 |  |  |
| COC(=O)N[C@H](C(=O)N1CCC[C@H]1c1ncc(-c2cc3c4c(c2)OCc2cc(-c5cnc([C@@H]6CCCN6C(=O)[C@@H](NC(=O)OC)C6CCOCC6)[nH]5)cc(c2-4)OC3)[nH]1)C(C)C | 8.84 |  |  |  |  | 9.76 | 9.73 | 8.88 | 10.85 |  |  |
| COC(=O)N[C@@H](C(=O)N1CCC[C@H]1c1ncc(-c2cc3c4c(c2)OCc2cc(-c5cnc([C@@H]6CCCN6C(=O)[C@H](NC(=O)OC)c6ccccc6)[nH]5)cc(c2-4)OC3)[nH]1)c1ccccc1 | 9.62 |  | 10.66 |  |  | 10.32 | 10.03 | 9.84 | 11.15 |  |  |
| COC(=O)N[C@H](C(=O)N1CCC[C@H]1c1ncc(-c2ccc3c(c2)COc2cc4c(ccc5nc([C@@H]6CCCN6C(=O)[C@@H](NC(=O)OC)C(C)C)[nH]c54)cc2-3)[nH]1)C(C)C | 8.94 | 11.10 | 9.79 |  | 11.40 | 10.77 | 10.80 |  | 11.40 |  |  |
| COC(=O)N[C@H](C(=O)N1CCC[C@H]1c1ncc(-c2cc3c4c(c2)COc2cc(-c5cnc([C@@H]6CCCN6C(=O)[C@@H](NC(=O)OC)C(C)C)[nH]5)cc(c2-4)OC3)[nH]1)C(C)C |  |  |  |  |  | 10.68 | 10.06 | 8.01 | 10.72 |  |  |
| COC(=O)NC(C(=O)N1CCC[C@H]1c1ncc(-c2cc3c4c(c2)OCc2cc(-c5cnc([C@@H]6CCCN6C(=O)[C@@H](NC(=O)OC)C(C)C)[nH]5)cc(c2-4)OC3)[nH]1)c1cccnc1 (stereo not given in full) | 8.74 |  | 8.92 |  |  | 9.24 | 9.12 |  | 10.42 |  |  |
| COC(=O)N[C@H](C(=O)N1CCC[C@H]1c1ncc(-c2cc3c4c(c2)OCc2cc(-c5cnc([C@@H]6CCCN6C(=O)[C@H](NC(=O)OC)c6ccccc6)[nH]5)cc(c2-4)OC3)[nH]1)C1CCOCC1 | 9.55 |  | 10.24 |  |  | 9.50 | 9.49 | 9.49 | 10.66 |  |  |
| COC(=O)N[C@H](C(=O)N1CCC[C@H]1c1ncc(-c2ccc3c(c2)COc2cc4c(ccc5nc([C@@H]6CCCN6C(=O)[C@H](NC(=O)OC)c6ccccc6)[nH]c54)cc2-3)[nH]1)C(C)C | 9.87 | 11.10 | 10.92 | 11.40 | 11.30 | 10.68 | 10.66 |  |  |  |  |
| COC(=O)N[C@H](C(=O)N1C[C@@H](C)C[C@H]1c1nc2ccc3cc4c(cc3c2[nH]1)OCc1cc(-c2cnc([C@@H]3C[C@H](C)CN3C(=O)[C@H](NC(=O)OC)c3ccccc3)[nH]2)ccc1-4)C(C)C | 10.35 |  |  | 10.74 | 10.30 | 10.52 | 10.48 |  |  | 10.57 | 10.20 |
| COC(=O)N[C@H](C(=O)N1CCC[C@H]1c1ncc(-c2ccc3c(c2)COc2c-3ccc3c2ccc2nc([C@@H]4CCCN4C(=O)[C@@H](NC(=O)OC)C(C)C)[nH]c23)[nH]1)C(C)C | 7.68 | 9.89 | 7.49 |  | 10.92 | 10.77 | 10.39 |  | 10.80 |  |  |
| COC(=O)N[C@@H](C(=O)N1C[C@@H](C)C[C@H]1c1ncc(-c2cc3c4c(c2)OCc2cc(-c5cnc([C@@H]6C[C@H](C)CN6C(=O)[C@H](NC(=O)OC)c6ccccc6)[nH]5)cc(c2-4)OC3)[nH]1)c1ccccc1 | 10.24 | 10.89 | 10.59 | 11.30 | 11.22 | 10.70 | 10.51 |  |  |  |  |
| COC(=O)N[C@@H](C(=O)N1[C@@H](C)CC[C@H]1c1ncc(-c2cc3c4c(c2)OCc2cc(-c5cnc([C@@H]6CC[C@H](C)N6C(=O)[C@H](NC(=O)OC)c6ccccc6)[nH]5)cc(c2-4)OC3)[nH]1)c1ccccc1 | 8.74 | 10.82 | 10.03 | 11.10 | 11.40 | 10.70 | 9.82 |  |  |  |  |
| COC(=O)N[C@H](C(=O)N1[C@@H](C)CC[C@H]1c1nc2ccc3cc4c(cc3c2[nH]1)OCc1cc(-c2cnc([C@@H]3C[C@H](C)CN3C(=O)[C@H](NC(=O)OC)c3ccccc3)[nH]2)ccc1-4)C(C)C | 10.28 |  |  | 11.40 | 10.70 | 11.30 | 11.10 |  |  | 10.82 |  |
| COC(=O)N[C@H](C(=O)N1CCC[C@H]1c1ncc(-c2ccc3c4ccc(-c5cnc([C@@H]6CCCN6C(=O)[C@@H](NC(=O)OC)C(C)C)[nH]5)cc4c4ccccc4c3c2)[nH]1)C(C)C |  |  |  |  |  | 11.30 | 10.04 | 8.17 | 10.70 |  |  |
| COC(=O)N[C@H](C(=O)N1CCC[C@H]1c1ncc(-c2cc3ccc4cc(-c5cnc([C@@H]6CCCN6C(=O)[C@@H](NC(=O)OC)C(C)C)[nH]5)cc5c(=O)c(c2)c3c45)[nH]1)C(C)C |  |  |  |  |  | 10.89 | 9.66 |  | 10.14 |  |  |
| COC(=O)N[C@H](C(=O)N1CCC[C@H]1c1ncc(-c2cc3c4c(c2)CCc2cc(-c5cnc([C@@H]6CCCN6C(=O)[C@@H](NC(=O)OC)C(C)C)[nH]5)cc(c2-4)CC3)[nH]1)C(C)C |  |  |  |  |  | 10.68 | 9.81 | 7.88 | 9.88 |  |  |
| COC(=O)N[C@H](C(=O)N1CCC[C@H]1c1ncc(-c2cc3c4c(ccc5cc(-c6cnc([C@@H]7CCCN7C(=O)[C@@H](NC(=O)OC)C(C)C)[nH]6)cc(c54)OC3)c2)[nH]1)C(C)C | 7.71 |  | 7.99 |  |  | 10.66 | 10.20 |  | 10.85 |  |  |
| CC[C@H](C)[C@H](NC(=O)OC)C(=O)N1CCC[C@H]1c1ncc(-c2cc3c4c(c2)OCc2cc(-c5cnc([C@@H]6CCCN6C(=O)[C@@H](NC(=O)OC)[C@@H](C)CC)[nH]5)cc(c2-4)OC3)[nH]1 |  |  | 8.73 |  |  | 10.72 | 10.51 | 7.92 | 11.05 |  |  |
| COC(=O)N[C@H](C(=O)N1CCC[C@H]1c1ncc(-c2cc3c4c(c2)OCc2cc(-c5cnc([C@@H]6CCCN6C(=O)[C@@H](NC(=O)OC)C6CCCC6)[nH]5)cc(c2-4)OC3)[nH]1)C1CCCC1 |  |  |  |  |  | 10.66 | 10.26 | < 7.36 | 10.66 |  |  |
| COC(=O)N[C@H](C(=O)N1CCC[C@H]1c1ncc(-c2cc3c4c(c2)OCc2cc(-c5cnc([C@@H]6CCCN6C(=O)[C@@H](NC(=O)OC)[C@@H](C)OC)[nH]5)cc(c2-4)OC3)[nH]1)C(C)C |  |  |  |  |  | 10.10 | 10.06 | 8.44 | 11.00 |  |  |
| COC(=O)N[C@H](C(=O)N1CCC[C@H]1c1ncc(-c2ccc3c4ccc(-c5cnc([C@@H]6CCCN6C(=O)[C@@H](NC(=O)OC)C(C)C)[nH]5)cc4c4nccnc4c3c2)[nH]1)C(C)C |  |  |  |  |  | 10.74 | 9.28 |  | 9.65 |  |  |
| COC(=O)N[C@H](C(=O)N1CCC[C@H]1c1ncc(-c2cc3c4c(c2)OCc2cc(-c5cnc([C@@H]6CCCN6C(=O)[C@H](NC(=O)OC)c6ccccc6)[nH]5)cc(c2-4)OC3)[nH]1)C(C)C | 8.74 |  | 10.12 |  |  | 10.51 | 10.30 | 9.22 | 11.40 |  |  |
| COC(=O)N[C@H](C(=O)N1CCC[C@H]1c1ncc(-c2ccc3c4ccc(-c5cnc([C@@H]6CCCN6C(=O)[C@@H](NC(=O)OC)C(C)C)[nH]5)cc4c4nc5ccccc5nc4c3c2)[nH]1)C(C)C |  |  |  |  |  | 11.00 | 8.22 |  | 8.83 |  |  |
